Read-outs that look alike come from different tables or passages of the source.
Assays:
[1] = target: T1, ERK5 (Homo sapiens, UniProt Q13164); assay: ERK5 IMAP assay (fluorescence polarisation); type: biochemical
T1 construct: made in house

[2] = tested on: ERK5 (HA-ERK5 wt activated by EGFP-MEK5D, MEF2D-Gal4/Gal4-Luc reporter) in HEK293 cells; assay: Dual-luciferase reporter assay (ERK5 reporter), reverse-transfected HEK293 cells; conditions: Homo sapiens, HEK293, read-out: ERK 5 Reporter Assay
Protocol: Trypsinizing of Adherent Cell Colonies
Cells were regularly passaged in order to maintain optimum colony sizes on plates. In order to do this, and to harvest cells for use in the dual-luciferase reporter assay, adherent cells were lifted from tissue culture dishes. Cell media was removed via aspiration, and the cell monolayer was washed with phosphate buffered saline (PBS) solution (10 mL), which was then aspirated.
Reverse Transfection of HEK293 Cells
Preparation of EGFP Control (C3) Working Solution (for 1×96 Well Plate)
Preparation of HEK293 Cells for Reverse Transfection
Trypsinized HEK293 cells were re-suspended in 19 mL of fresh cell media and counted using haemocytometry. Cells were then diluted with fresh cell media to achieve a final cell concentration of 2×10^5 cells/mL. 1237.5 μL and 7425 μL of this cell media was added to the C3 and 5D working solutions respectively. 100 μL of the transfected cells were then aliquoted into the appropriate wells in a 96-well opaque sided tissue culture plate, and incubated at 37° C. for 6 h.
Addition of Compounds to HEK293 Cells
4 compounds was assayed per 96-well plate. For each compound, 1 mL of growth media was added to eight 1.5 mL Eppendorf® tubes. 6 μL of DMSO was added to two tubes for C3 and blank 5D wells, and 6 μL of the relevant compound stock solution was added to the 6 remaining tubes. […] Solutions of drug in media were thoroughly mixed, and 100 μL of the relevant compound was transferred (in triplicate) to the 96-well plate containing transfected HEK293 cells using an electronic multichannel pipette with variable tip spacing. Sealed plates were incubated at 37° C. for 24 h. Final compound concentrations were as follows; 30 μM, 10 μM, 3 μM, 1 μM and 0.3 μM.
15 mL of 1× passive lysis buffer (PLB) was prepared using 5×PLB (Dual-Luciferase Reporter Assay System, Promega® E1960), diluting with H2O. Assay plates prepared were removed from the incubator and the growth media removed by aspiration.

[3] = tested on: HA-ERK5-ΔP493 (MEK5D-activated, MEF2D-Gal4/Gal4-Luc reporter) in HEK293T cells; assay: Truncated dual-luciferase reporter assay, HEK293T forward transfection; type: cell-based; conditions: Homo sapiens, HEK-293T, average where more than one data point, read-out: Truncated ERK 5 Reporter Assay
Protocol: Truncated Dual-Luciferase Reporter Assay
HEK293T and HeLa Forward Transfection
Constitutively-active, EGFP-tagged MEK5 (EGFP-MEK5D; 0.5 μg/μl), an EGFP-tagged construct containing no MEK5D (EGFP-C3; 0.5 μg/μl), and HA-tagged ERK5 with C-terminal truncation (HA-ERK5-ΔP493; 0.51 μg/μl) were diluted separately in sterile distilled water. Plasmid DNA and Lipofectamine 2000 (Invitrogen) were separately diluted in Opti-MEM growth media (reduced serum medium, Invitrogen), and incubated at room temperature for 5 min. Plasmid DNA (Tube A) and Lipofectamine 2000 (Tube B) were then combined and incubated for 20 min at room temperature to complex. Cells were then transfected by addition of 16 μl of the respective transfection mixture: 3 wells with EGFP-C3-containing (control) and 21 wells with MEK5D-containing transfection mixture (final volume, 100 μl). Cells were subsequently incubated for 4 h at 37° prior to addition of potential ERK5-inhibitory compounds.
Addition of Compounds to ERK5-Transfected HEK293T or HeLa Cells
Potential ERK5-inhibitory compounds were prepared as a 2× solution by addition of 2 μl compound (or DMSO as control) to 1 ml standard culture medium. Compounds were tested in triplicate at a concentration range of 0.003 μM, 0.01 μM, 0.03 μM, 0.1 μM, 0.3 μM and 1 μM (or 0.03 μM, 0.1 μM, 0.3 μM, 1 μM, 3 μM and 10 μM for BIX02189) by addition of 100 μl 2× solution to 100 μl transfected cells (final DMSO, 0.1% v/v). Cells were incubated for 24 h at 37° C.
Cell Lysis and Luciferase Quantification
After 24 h incubation in the absence (control) or presence of potential inhibitor, the culture medium was aspirated and cells lysed in 20 μl 1× passive lysis buffer (Dual-Luciferase Reporter Assay System, Promega) for a minimum of 15 min with agitation. Lysates were further processed immediately or stored at −80° C. Cellular inhibition of ERK5 was quantified using the Dual-Luciferase Reporter Assay System (Promega). Luciferase assay buffer/Luciferase assay substrate and Stop and Glo assay buffer/Stop and Glo substrate were prepared according to the manufacturer's instructions. Luciferase reagent (50 μl/well) was added immediately before luminescence detection using a FLUOstar Omega plate reader (BMG Labtech). Stop and Glo reagent (50 μl/well) was subsequently added, and the Renilla luciferase signal (transfection efficiency control) quantified.
The ERK5-specific signalling activity was calculated by subtraction of the EGFP-C3 luciferase signal from the EGFP-MEK5D-induced luminescence. Luminescence in the absence of potential ERK5 inhibitor (DMSO control) was taken as 100% ERK5 activity. […] Unless stated otherwise, data are mean±standard deviation of three independent experiments.

[4] = average (e.g. geometric mean) where more than one data point, read-out: ERK5 IC50

T1 sequence (Q13164 whole entry): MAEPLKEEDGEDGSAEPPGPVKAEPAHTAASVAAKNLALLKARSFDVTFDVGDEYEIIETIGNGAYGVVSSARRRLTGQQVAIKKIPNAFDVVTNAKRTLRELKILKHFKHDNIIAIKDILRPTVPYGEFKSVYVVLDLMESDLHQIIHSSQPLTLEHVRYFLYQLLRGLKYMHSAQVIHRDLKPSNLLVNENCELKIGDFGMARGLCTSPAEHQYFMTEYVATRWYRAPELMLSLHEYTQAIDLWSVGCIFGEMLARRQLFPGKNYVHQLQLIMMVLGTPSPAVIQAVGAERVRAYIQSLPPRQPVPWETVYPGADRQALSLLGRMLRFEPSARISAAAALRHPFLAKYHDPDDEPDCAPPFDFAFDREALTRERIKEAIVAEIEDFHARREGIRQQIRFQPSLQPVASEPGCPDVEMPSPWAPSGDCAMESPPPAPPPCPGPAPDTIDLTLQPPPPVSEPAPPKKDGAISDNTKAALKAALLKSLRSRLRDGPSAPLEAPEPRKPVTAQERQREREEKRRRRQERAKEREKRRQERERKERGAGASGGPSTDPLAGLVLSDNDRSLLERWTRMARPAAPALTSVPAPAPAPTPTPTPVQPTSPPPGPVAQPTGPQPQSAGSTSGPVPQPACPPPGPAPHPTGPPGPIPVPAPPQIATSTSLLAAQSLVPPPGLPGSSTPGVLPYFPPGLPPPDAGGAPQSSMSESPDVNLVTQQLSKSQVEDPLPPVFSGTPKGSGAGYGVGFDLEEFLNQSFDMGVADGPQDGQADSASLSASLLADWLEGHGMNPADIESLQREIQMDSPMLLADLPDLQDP

| SMILES | IC50 [1, 4] | IC50 [2] | IC50 [3] | IC50 [1] |
| --- | --- | --- | --- | --- |
| O=C(Nc1cccnc1)c1cc(C(=O)c2cccc(Cl)c2Cl)c[nH]1 [Example 159, 4-(2,3-Dichlorobenzoyl)-N-(pyridin-3-yl)-1H-pyrrole-2-carboxamide] | 1490 nM | 24000 nM |  |  |
| COc1ccc(Cl)c(C(=O)c2c[nH]c(C(=O)Nc3ccc(CC4CCN(C)CC4)nc3)c2)c1F [Example 236, 4-(6-Chloro-2-fluoro-3-methoxybenzoyl)-N-(6-((1-methylpiperidin-4-yl)methyl)pyridin-3-yl)-1H-pyrrole-2-carboxamide] | 10.2 nM |  | 96 nM |  |
| O=C(Nc1ccc(NCCN2CCCC2)nc1)c1cc(C(=O)c2c(Cl)ccc(Cl)c2F)c[nH]1 [Example 275, 4-(3,6-Dichloro-2-fluorobenzoyl)-N-(6-((2-(pyrrolidin-1-yl)ethyl)amino)pyridin-3-yl)-1H-pyrrole-2-carboxamide] | 7.1 nM |  | 107 nM |  |
| Cc1cccc(F)c1C(=O)c1c[nH]c(C(=O)NC2CCNCC2)c1 [Example 191, 4-(2-Fluoro-6-methylbenzoyl)-N-(piperidin-4-yl)-1H-pyrrole-2-carboxamide] | 1400 nM | 19500 nM |  |  |
| CN1CCC(NC(=O)c2cc(C(=O)c3c(F)cccc3Cl)c[nH]2)CC1 [Example 192, 4-(2-Chloro-6-fluorobenzoyl)-N-(1-methylpiperidin-4-yl)-1H-pyrrole-2-carboxamide] | 199 nM | 3010 nM |  |  |
| O=C(Nc1ccncc1)c1cc(C(=O)c2c(F)cccc2C(F)(F)F)c[nH]1 [Example 183, 4-(2-Fluoro-6-(trifluoromethyl)benzoyl)-N-(pyridin-4-yl)-1H-pyrrole-2-carboxamide] | 1880 nM | 7670 nM |  |  |
| CN1CCN(c2ccc(NC(=O)c3cc(C(=O)c4c(F)cccc4Cl)c[nH]3)cn2)CC1 [Example 31, 4-(2-Chloro-6-fluorobenzoyl)-N-(6-(4-methylpiperazin-1-yl)pyridin-3-yl)-1H-pyrrole-2-carboxamide] | 91.5 nM | 1180 nM |  |  |
| CS(=O)(=O)N1CCC(NC(=O)c2cc(C(=O)c3c(Cl)ccc(Cl)c3F)c[nH]2)CC1 [Example 9, 4-(3,6-Dichloro-2-fluorobenzoyl)-N-(1-(methylsulfonyl)piperidin-4-yl)-1H-pyrrole-2-carboxamide] | 144 nM | 826 nM |  |  |
| O=C(NC1CCNCC1)c1cc(C(=O)c2c(Cl)ccc(Cl)c2F)c[nH]1 [Example 4, 4-(3,6-Dichloro-2-fluorobenzoyl)-N-(piperidin-4-yl)-1H-pyrrole-2-carboxamide] |  | 2340 nM |  |  |
| O=C(Nc1cncnc1)c1cc(C(=O)c2c(Cl)ccc(Cl)c2F)c[nH]1 [Example 173, 4-(3,6-Dichloro-2-fluorobenzoyl)-N-(pyrimidin-5-yl)-1H-pyrrole-2-carboxamide] | 316 nM | 508 nM |  |  |
| O=C(Nc1cnn(C2CCNCC2)c1)c1cc(C(=O)c2c(F)cccc2Cl)c[nH]1 [Example 52, 4-(2-Chloro-6-fluorobenzoyl)-N-(1-(piperidin-4-yl)-1H-pyrazol-4-yl)-1H-pyrrole-2-carboxamide] | 123 nM | 8810 nM |  |  |
| O=C(Nc1ccncc1)c1cc(C(=O)c2c(F)cccc2Cl)c[nH]1 [Example 187, 4-(2-Chloro-6-fluorobenzoyl)-N-(pyridin-4-yl)-1H-pyrrole-2-carboxamide] |  | 2330 nM |  | 602 nM |
| O=C(NC1CCNCC1)c1cc(C(=O)c2c(F)cccc2Br)c[nH]1 [Example 197, 4-(2-Bromo-6-fluorobenzoyl)-N-(piperidin-4-yl)-1H-pyrrole-2-carboxamide] | 386 nM | 22000 nM |  |  |
| O=C(NC1CCNCC1)c1cc(C(=O)c2c(F)cccc2C(F)(F)F)c[nH]1 [Example 161, 4-(2-Fluoro-6-(trifluoromethyl)benzoyl)-N-(piperidin-4-yl)-1H-pyrrole-2-carboxamide] | 2410 nM | 16700 nM |  |  |
| O=C(Nc1ccncc1)c1cc(C(=O)c2c(F)cccc2Br)c[nH]1 [Example 189, 4-(2-Bromo-6-fluorobenzoyl)-N-(pyridin-4-yl)-1H-pyrrole-2-carboxamide] |  | 4000 nM |  | 676 nM |
| CN1CCC(NC(=O)c2cc(C(=O)c3c(F)cccc3F)c[nH]2)CC1 [Example 129, 4-(2,6-Difluorobenzoyl)-N-(1-methylpiperidin-4-yl)-1H-pyrrole-2-carboxamide] | 1130 nM | 6000 nM |  |  |
| O=C(Nc1cccnc1)c1cc(C(=O)c2c(F)cccc2F)c[nH]1 [Example 122, 4-(2,6-Difluorobenzoyl)-N-(pyridin-3-yl)-1H-pyrrole-2-carboxamide] |  | 26000 nM |  | 1120 nM |
| CC(=O)N1CCC(NC(=O)c2cc(C(=O)c3c(Cl)ccc(Cl)c3F)c[nH]2)CC1 [Example 7, N-(1-Acetylpiperidin-4-yl)-4-(3,6-dichloro-2-fluorobenzoyl)-1H-pyrrole-2-carboxamide] | 87.8 nM | 968 nM |  |  |
| CN1CCC(NC(=O)c2cc(C(=O)c3c(F)ccc(Cl)c3F)c[nH]2)CC1 [Example 213, 4-(3-Chloro-2,6-difluorobenzoyl)-N-(1-methylpiperidin-4-yl)-1H-pyrrole-2-carboxamide] | 156 nM | 3510 nM |  |  |
| CC(C)(C)OC(=O)N1CCC(NC(=O)c2cc(C(=O)c3c(F)cccc3F)c[nH]2)CC1 [Example 123, tert-Butyl 4-(4-(2,6-difluorobenzoyl)-1H-pyrrole-2-carboxamido)piperidine-1-carboxylate] | 2860 nM | 25000 nM |  |  |
| O=C(NC1CCOCC1)c1cc(C(=O)c2c(F)cccc2F)c[nH]1 [Example 124, 4-(2,6-Difluorobenzoyl)-N-(tetrahydro-2H-pyran-4-yl)-1H-pyrrole-2-carboxamide] | 2250 nM | 23300 nM |  |  |
| O=C(Nc1cccnc1)c1cc(C(=O)c2c(F)cccc2C(F)(F)F)c[nH]1 [Example 184, 4-(2-Fluoro-6-(trifluoromethyl)benzoyl)-N-(pyridin-3-yl)-1H-pyrrole-2-carboxamide] | 5680 nM | 10300 nM |  |  |
| O=C(Nc1cccnc1)c1cc(C(=O)c2cc(F)ccc2F)c[nH]1 [Example 225, 4-(2,5-Difluorobenzoyl)-N-(pyridin-3-yl)-1H-pyrrole-2-carboxamide] | 6030 nM | 4770 nM |  |  |
| O=C(NC1CCNCC1)c1cc(C(=O)c2cccc(Cl)c2Cl)c[nH]1 [Example 160, 4-(2,3-Dichlorobenzoyl)-N-(piperidin-4-yl)-1H-pyrrole-2-carboxamide] | 1710 nM | 30000 nM |  |  |
| O=C(NC1CCNCC1)c1cc(C(=O)c2c(F)cccc2F)c[nH]1 [Example 126, 4-(2,6-Difluorobenzoyl)-N-(piperidin-4-yl)-1H-pyrrole-2-carboxamide] | 1260 nM | 18300 nM |  |  |
| CC(C)(C)OC(=O)N1CCC(NC(=O)c2cc(C(=O)c3c(Cl)ccc(Cl)c3F)c[nH]2)CC1 [Example 2, tert-Butyl 4-(4-(3,6-dichloro-2-fluorobenzoyl)-1H-pyrrole-2-carboxamido)piperidine-1-carboxylate] | 1350 nM |  |  |  |
| O=C(NC1CCNCC1)c1cc(C(=O)c2c(F)cccc2Cl)c[nH]1 [Example 3, 4-(2-Chloro-6-fluorobenzoyl)-N-(piperidin-4-yl)-1H-pyrrole-2-carboxamide] | 487 nM | 3500 nM |  |  |
| O=C(Nc1cccnc1)c1cc(C(=O)c2c(Cl)ccc(F)c2F)c[nH]1 [Example 221, 4-(6-Chloro-2,3-difluorobenzoyl)-N-(pyridin-3-yl)-1H-pyrrole-2-carboxamide] | 713 nM |  |  |  |
| O=C(Nc1cc[nH]c(=O)n1)c1cc(C(=O)c2c(F)cccc2Br)c[nH]1 [Example 147, 4-(2-Bromo-6-fluorobenzoyl)-N-(2-oxo-1,2-dihydropyrimidin-4-yl)-1H-pyrrole-2-carboxamide] | 34200 nM |  |  |  |
| O=C(Nc1cncnc1)c1cc(C(=O)c2c(Cl)ccc(F)c2F)c[nH]1 [Example 222, 4-(6-Chloro-2,3-difluorobenzoyl)-N-(pyrimidin-5-yl)-1H-pyrrole-2-carboxamide] | 554 nM |  |  |  |

From patent publication US10344017B2, “Pyrrolcarboxamide derivatives for the inhibition of ERK5” (CANCER RESEARCH TECHNOLOGY LIMITED, priority 2014, dated 2019)
